# Values quoted from earlier work, collected in patent US20110189319A1, “Lifeforce liquid supplement” (priority 2010, published 2011).
# Where two headings read alike, the source gives them in different places.
# Assays:
# [1] = in vivo
# [2] = system: herpes virus
# [3] = system: patients affected by chronic cerebrovasculopathy; settings: 1000 mg/day i.m.
# [4] = system: patients with Alzheimer disease; settings: 1,000 mg/day
# [5] = system: INTERMAP participants
# [6] = system: women; settings: highest versus least dietary intake
# [7] = system: lymphocytes; settings: relative to beta-carotene
# [8] = system: elderly patients with chronic cerebral dysfunction
# [9] = system: rat brain synaptosomes
# [10] = system: patients suffering from multiple cerebral infarcts
# [11] = target: phosphodiesterase (PDE) type-1
# [12] = system: patients suffering from mild to moderate dementia; settings: 10 or 20 mg three times a day, sixteen weeks
# [13] = not given; remark: listed apart in the source
# [14] = system: healthy female volunteers; settings: 40 mg three times a day, two days
# [15] = system: permanent middle cerebral artery occlusion in rats; settings: rats, 2,3,5-triphenyltetrazolium-chloride staining
# [16] = system: exercise capacity; settings: 750 mg soybean-derived daily for 10 d
# [17] = system: healthy elderly volunteers; settings: 100 mg×3/day p.o., 12 weeks
# [18] = system: elderly with age-associated memory impairment; settings: in vivo
# [19] = system: young adults; settings: 300 mg each day for a month, neuroticism scores above the median
# [20] = system: female health professionals; settings: about 262.4 versus 4.4 milligrams per day
# [21] = oral, healthy male volunteers, PET
# [22] = system: AMD patients; settings: 10 mg daily, 12 months
# [23] = in vivo; remark: listed apart in the source
# [24] = 2,038 subjects without hypertension
# [25] = 2,238 subjects not using drugs, supplements or special diet
# [26] = high (0.67% kcal) versus lower intake, all participants
# [27] = 100 microM, ascorbate/Fe2+ oxidative stress
compound,measurement,setting,value
"CC(C)=CCC[C@](C)(O[C@@H]1O[C@H](CO[C@@H]2O[C@H](CO)[C@@H](O)[C@H](O)[C@H]2O)[C@@H](O)[C@H](O)[C@H]1O)[C@H]1CC[C@]2(C)[C@@H]1[C@H](O)C[C@@H]1[C@@]3(C)CC[C@H](O[C@@H]4O[C@H](CO)[C@@H](O)[C@H](O)[C@H]4O[C@@H]4O[C@H](CO)[C@@H](O)[C@H](O)[C@H]4O)C(C)(C)[C@@H]3CC[C@]12C [Rb1, Ginsenoside Rb1]",oral bioavailability,[1]; po,low oral bioavailability
"CC(C)=CCC[C@](C)(O[C@@H]1O[C@H](CO)[C@@H](O)[C@H](O)[C@H]1O)[C@H]1CC[C@]2(C)[C@@H]1[C@H](O)C[C@@H]1[C@@]3(C)CC[C@H](O)C(C)(C)[C@@H]3[C@@H](O[C@@H]3O[C@H](CO)[C@@H](O)[C@H](O)[C@H]3O)C[C@]12C [Rg1, ginsenoside Rg1]",elimination from the blood,[1],rapidly eliminated from the blood
COc1ccc2c(=O)oc3c(OC)cc(CCN(C)C)c4c(=O)oc1c2c34 [taspine],activity against herpes virus,[2],active
"C[N+](C)(C)CCOP(=O)(O)OP(=O)([O-])OC[C@H]1O[C@@H](n2ccc(N)nc2=O)[C@H](O)[C@@H]1O [Citicoline, cytidine 5′-diphosphocholine]",bioavailability,in vivo,greater than 90%
same,excreted in feces,"oral doses, healthy adults",less than one
same,first plasma peak after ingestion,"oral, biphasic",one
same,second larger plasma peak post-dosing,"oral, biphasic",24 h
same,side-effects,[3],No side-effects were detected
same,tolerability,[4],well tolerated
omega-3 fatty acid,average diastolic reduction,[5]; [24],0.92 mm Hg
same,average systolic reduction,[5]; [24],0.91 mm Hg
same,reduction in diastolic blood pressure,[5]; [25],0.98 mm Hg
same,reduction in systolic blood pressure,[5]; [25],1.01 mm Hg
same,lower average diastolic blood pressure,[5]; [26],0.57 mm Hg
same,lower average systolic blood pressure,[5]; [26],0.55 mm Hg
same,lower risk of dry eye syndrome,[6],17%
CC(C)=CCC/C(C)=C/C=C/C(C)=C/C=C/C(C)=C/C=C/C=C(C)/C=C/C=C(C)/C=C/C=C(\C)CCC=C(C)C [Lycopene],protection of lymphocytes from membrane damage and cell death,[7],twice as efficiently as beta-carotene
CCOC(=O)C1=C[C@]2(CC)CCCN3CCc4c(n1c1ccccc41)[C@@H]32 [Vinpocetine],cognitive evaluations versus placebo,"[8]; 10 mg tid thirty days, then 5 mg tid sixty days",scored consistently better in all cognitive evaluations
same,side effects,[8]; ninety-day trial,No serious side effects
same,decrease of DCFH2-DA fluorescence,[9]; [27],about 50%
same,decrease of DHR 123 fluorescence,[9]; [27],~83%
same,ascorbate/Fe2+ stimulated consumption of oxygen and TBARS accumulation,[9]; concentration-dependent,inhibited
same,side effects,[10]; in vivo,No serious side effect
same,digit span backward test,[10]; three months,did not show any significant worsening
same,"flow velocities after breath holding, acute phase, versus placebo",[10]; transcranial Doppler,significantly lower
same,IC50,[11],~10 µM
same,cognitive improvement versus placebo,[12],Statistically significant cognitive improvements
same,side effects,[12],no clinically relevant side effects
same,absorption of an ingested dose,[13]; given with food,up to 60%
same,elimination half-life following ingestion,[13]; in vivo,one to two
same,levels peak in the bloodstream after ingestion,[13]; in vivo,an hour and a half
same,time to peak plasma levels after ingestion,[13]; in vivo,one to one and a half
same,absorption of an ingested dose,[13]; on an empty stomach,≥ 7%
same,time in which most of a dose is excreted as apovincaminic acid,[13]; urine,≤ 24 h
same,memory versus placebo,[14],significantly improved
same,decrease of infarct volume compared to control,[15],42%
Phosphatidylserine,exercise capacity,[16],improved exercise capacity
same,outcome measures of age related cognitive decline,[17],significant drug over time effect
same,safe dosage for older persons,[18],≤ 200 mg three times daily
same,feelings of stress and mood,[19],feeling less stressed and having a better mood
vitamin E,less likely to develop cataracts,[20],14%
CCOC(=O)C1=C[C@]2(CC)CCCN3CCc4c(n1c1ccccc41)[C@@H]32 [[11C] vinpocetine],average maximum brain uptake,[21],0.7 % of the administered total dose
CC1=C[C@H](O)CC(C)(C)[C@H]1/C=C/C(C)=C/C=C/C(C)=C/C=C/C=C(C)/C=C/C=C(C)/C=C/C1=C(C)C[C@@H](O)CC1(C)C [Lutein],increase in macular pigment density relative to placebo,[22],50%
same,"visual function (glare recovery, contrast sensitivity, visual acuity) vs. placebo",[22],significant improvements
same,bioavailability,[23],approximately 70%
C[C@]12N[C@H](Cc3ccccc31)c1ccccc12 [MK-801],decrease of infarct volume compared to control,[15],18%
